According to article PMC10385416, “Iron-Gallic Acid Peptide Nanoparticles as a Versatile Platform for Cellular Delivery with Synergistic ROS Enhancement Effect” (Pharmaceutics, 2023):
Ends that are not written are not given here. Peptide text beside a SMILES is read from it.

What was measured:
[1] = Methylene blue assay of HO• production (Fenton reaction); conditions: pH 4, H2O2, same Fe content (36 µg Fe3+), UV-Vis every 5 min over 6 h
Protocol: MB assays were used to measure the HO^• production efficacy of IGPNs. IGPNs (36 µg Fe^3+) were mixed with MB (1.5 mL, 10 µg L^−1) and H2O2 (1 mL), and H2O was added to a final volume of 3 mL. The absorbance at 664 nm was recorded with a Cary 3500 UV–Vis Spectrophotometer every 5 min over 6 h.
To verify the hypothesized Fenton reaction of IGPNs, H2O2 was used as a source of hydroxyl radicals (HO^•) and to simulate the tumor microenvironment. The generation of HO^• and degradation of methylene blue (MB) upon exposure to H2O2 and different samples adjusted to the same Fe content (IGPNs or FeCl3 solution) was monitored by UV–Vis spectrometry. At pH 4 (Figure 7A), the decrease of absorbance at 664 nm was accelerated in the presence of Fe-A4**, FePVP-A4**, or Fe^3+. At the favorable acidic pH, no differences in reaction rates were observed between IGPNs and Fe^3+, since the content of Fe^3+ is obviously sufficient to drive the reaction under these conditions. In contrast, at pH 7.4, the absorbance decline was clearly more pronounced in case of IGPNs (Figure 7B). This phenomenon could be explained by an accelerated conversion of Fe^3+ to Fe^2+ in the presence of GA.

[2] = tested on: HeLa cells; assay: Cell viability (CellTiter-Glo assay), HeLa; type: cell-based, human; conditions: 10 μM, 72 h
Protocol: The CellTiter-Glo® Luminescent Cell Viability Assay was performed to determine the viability of HeLa or N2a cells after treatment with IGPNs or the individual components. One day prior to the treatments, HeLa or N2a cells were seeded into 96-well plates at a density of 5000 cells/well. On the next day, the medium in each well was replaced with 90 μL of fresh medium, and 10 μL of nanoparticles or control solutions (free peptides, Fe, FePVP) was added to each well corresponding to the specified final concentrations of the peptide or Fe^3+, respectively. The supernatant was removed after 72 h incubation, and 25 µL of medium as well as 25 µL of CellTiter-Glo reagent were added to each well. The plate was gently agitated for 30 min at RT, and the luminescence signal (relative light units, RLU) was recorded by a Centro LB 960 plate reader luminometer (Berthold Technologies, Bad Wildbad, Germany). The relative cell viability (in percentage) was calculated relative to control wells treated with HBG buffer as ([RLU] test/[RLU] control) × 100%. All experiments were performed in triplicate.

Compound | decrease of methylene blue absorbance at 664 nm (HO• generation) at pH 4 [1] | cytotoxicity / tolerability in words [2]
O.O.O.O.O.O.[Cl-].[Cl-].[Cl-].[Fe+3] [Fe^3+, iron (III) chloride hexahydrate] | accelerated | 
AVPIAQK [AVP] |  | not able to mediate significant cytotoxicity
NCCCC[C@H](NC(=O)[C@@H]1CCCN1C(=O)[C@@H](N)CCC(N)=O)C(=O)O [SIO] (H-Gln-Pro-Lys-OH) |  | not able to mediate significant cytotoxicity
